Measurements: ChEMBL document CHEMBL5465560, “Selectivity Literature for EUbOPEN Chemogenomic Library” (2024)

How the values were obtained:
[1] = molecular target: Serine/threonine-protein kinase PRP4 homolog (Homo sapiens) (UniProt Q13523); assay: Selectivity interaction (KinomeScan (DiscoverX)) EUB0000229b PRPF4B; details: at 10 µM
[2] = molecular target: Calcium/calmodulin-dependent protein kinase type 1D (Homo sapiens) (UniProt Q8IU85); assay: Selectivity interaction (KinomeScan (DiscoverX)) EUB0000045b CAMK1D
Calcium/calmodulin-dependent protein kinase type 1D (Homo sapiens), sequence (Q8IU85 whole entry, looked up): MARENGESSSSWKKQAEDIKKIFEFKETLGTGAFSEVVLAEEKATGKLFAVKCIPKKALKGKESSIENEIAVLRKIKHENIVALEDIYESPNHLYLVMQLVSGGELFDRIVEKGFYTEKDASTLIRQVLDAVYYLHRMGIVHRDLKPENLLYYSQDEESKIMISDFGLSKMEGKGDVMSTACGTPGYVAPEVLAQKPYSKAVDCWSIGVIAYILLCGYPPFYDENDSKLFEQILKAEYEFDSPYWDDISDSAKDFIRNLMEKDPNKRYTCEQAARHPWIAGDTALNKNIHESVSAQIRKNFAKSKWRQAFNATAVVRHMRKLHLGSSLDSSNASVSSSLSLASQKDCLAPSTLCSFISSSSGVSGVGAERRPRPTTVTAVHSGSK

[3] = molecular target: MAP kinase-activated protein kinase 2 (Homo sapiens, UniProt P49137); assay: Selectivity interaction (KinomeScan (DiscoverX)) EUB0001079a MAPKAPK2; details: at 1 µM
MAP kinase-activated protein kinase 2, sequence (P49137 whole entry, looked up): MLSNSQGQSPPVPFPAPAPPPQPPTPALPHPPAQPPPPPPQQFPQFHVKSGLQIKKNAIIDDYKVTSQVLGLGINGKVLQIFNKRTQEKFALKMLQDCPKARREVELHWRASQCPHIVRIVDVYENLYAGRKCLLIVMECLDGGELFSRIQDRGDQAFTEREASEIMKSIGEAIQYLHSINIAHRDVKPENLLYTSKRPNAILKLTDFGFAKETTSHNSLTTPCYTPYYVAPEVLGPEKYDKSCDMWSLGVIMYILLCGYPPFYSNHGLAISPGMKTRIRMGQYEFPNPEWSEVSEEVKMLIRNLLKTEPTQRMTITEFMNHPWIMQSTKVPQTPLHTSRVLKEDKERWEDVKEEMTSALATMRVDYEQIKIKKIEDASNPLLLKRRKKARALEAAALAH

[4] = molecular target: Fibroblast growth factor receptor 2 (Homo sapiens) (UniProt P21802); assay: Selectivity interaction (KinomeScan (DiscoverX)) EUB0001079a FGFR2; details: at 1 µM
Fibroblast growth factor receptor 2 (Homo sapiens), sequence (P21802 22-821 limits assumed): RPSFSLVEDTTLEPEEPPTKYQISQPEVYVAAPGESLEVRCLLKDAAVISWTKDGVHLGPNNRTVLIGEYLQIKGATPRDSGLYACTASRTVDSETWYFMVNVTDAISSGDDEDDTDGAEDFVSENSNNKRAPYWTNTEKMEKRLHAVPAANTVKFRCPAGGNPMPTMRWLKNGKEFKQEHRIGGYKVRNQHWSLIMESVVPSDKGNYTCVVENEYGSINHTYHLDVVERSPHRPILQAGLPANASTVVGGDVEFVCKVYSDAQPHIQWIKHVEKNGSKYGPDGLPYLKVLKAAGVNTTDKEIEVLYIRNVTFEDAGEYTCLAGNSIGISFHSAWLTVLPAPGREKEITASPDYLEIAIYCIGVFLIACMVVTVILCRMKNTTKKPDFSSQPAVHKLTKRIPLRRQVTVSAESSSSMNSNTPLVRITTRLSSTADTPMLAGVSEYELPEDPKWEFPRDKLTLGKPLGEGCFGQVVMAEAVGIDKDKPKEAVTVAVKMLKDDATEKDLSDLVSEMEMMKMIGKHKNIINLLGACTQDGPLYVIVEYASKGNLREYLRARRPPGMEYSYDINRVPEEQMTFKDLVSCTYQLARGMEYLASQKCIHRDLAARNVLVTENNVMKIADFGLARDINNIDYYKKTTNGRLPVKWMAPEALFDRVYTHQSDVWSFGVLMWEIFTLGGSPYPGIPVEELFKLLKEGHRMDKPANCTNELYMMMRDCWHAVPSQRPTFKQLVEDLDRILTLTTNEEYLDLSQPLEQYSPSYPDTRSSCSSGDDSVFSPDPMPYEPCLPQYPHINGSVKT

[5] = molecular target: PH-interacting protein (Homo sapiens) (UniProt Q8WWQ0); assay: Selectivity interaction (Bromodomain panel (DSF asssay)) EUB0000270b PHIP
[6] = molecular target: Receptor-interacting serine/threonine-protein kinase 2 (Homo sapiens, UniProt O43353); details: at 10 µM
Receptor-interacting serine/threonine-protein kinase 2, sequence (O43353 whole entry): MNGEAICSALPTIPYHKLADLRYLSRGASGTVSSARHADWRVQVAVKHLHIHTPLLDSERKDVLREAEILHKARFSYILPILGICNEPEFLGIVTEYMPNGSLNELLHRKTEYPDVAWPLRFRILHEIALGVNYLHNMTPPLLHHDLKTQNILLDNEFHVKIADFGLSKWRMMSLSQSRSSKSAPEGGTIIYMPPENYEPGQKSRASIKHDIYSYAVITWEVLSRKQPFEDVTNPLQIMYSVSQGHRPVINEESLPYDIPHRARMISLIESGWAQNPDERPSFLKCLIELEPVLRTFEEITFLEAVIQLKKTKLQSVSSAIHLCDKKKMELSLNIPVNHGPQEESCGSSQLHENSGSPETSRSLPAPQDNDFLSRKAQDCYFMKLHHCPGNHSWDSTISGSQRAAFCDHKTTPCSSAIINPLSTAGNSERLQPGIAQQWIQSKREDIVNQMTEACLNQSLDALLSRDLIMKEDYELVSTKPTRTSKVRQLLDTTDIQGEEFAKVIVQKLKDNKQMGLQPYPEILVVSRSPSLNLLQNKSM

[7] = molecular target: Glucocorticoid receptor (Homo sapiens) (UniProt P04150); assay: Selectivity interaction (Eurofins CEREP Diversity Profile (receptors and ion channels)) EUB0000279b NR3C1; details: at 10 µM
[8] = molecular target: Serine/threonine-protein kinase N1 (Homo sapiens, UniProt Q16512); assay: Selectivity interaction (KinomeScan (DiscoverX)) EUB0001619a PKN1; details: at 1 µM
[9] = molecular target: Serine/threonine-protein kinase SIK1 (Homo sapiens) (UniProt P57059); assay: Selectivity interaction (KinomeScan (DiscoverX)) EUB0001619a SIK1; details: at 1 µM
[10] = molecular target: Myosin light chain kinase, smooth muscle (Homo sapiens, UniProt Q15746); assay: Selectivity interaction (KinomeScan (DiscoverX)) EUB0001619a MYLK; details: at 1 µM
[11] = molecular target: T1, Serine/threonine-protein kinase 3 (Homo sapiens) (UniProt Q13188); assay: Selectivity interaction (KinomeScan (DiscoverX)) EUB0000618a STK3; details: at 10 µM
T1 sequence (whole entry): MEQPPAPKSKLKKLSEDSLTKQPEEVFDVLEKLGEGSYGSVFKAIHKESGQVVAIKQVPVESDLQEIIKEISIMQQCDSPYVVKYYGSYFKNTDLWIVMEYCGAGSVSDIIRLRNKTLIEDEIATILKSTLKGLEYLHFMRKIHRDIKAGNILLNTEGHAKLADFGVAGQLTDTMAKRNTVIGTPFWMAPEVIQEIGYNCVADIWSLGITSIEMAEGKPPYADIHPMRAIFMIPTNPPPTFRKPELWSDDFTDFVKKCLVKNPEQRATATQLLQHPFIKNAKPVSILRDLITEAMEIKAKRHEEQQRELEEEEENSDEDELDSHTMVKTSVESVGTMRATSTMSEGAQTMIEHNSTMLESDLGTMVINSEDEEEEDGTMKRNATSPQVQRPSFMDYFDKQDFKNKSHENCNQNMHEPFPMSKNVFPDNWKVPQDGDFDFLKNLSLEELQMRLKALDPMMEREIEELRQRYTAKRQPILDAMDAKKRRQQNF

[12] = molecular target: Dual specificity protein kinase CLK2 (Homo sapiens, UniProt P49760); assay: Selectivity interaction (ActivX KiNativ screen (kinase selectivity in THP-1 cell lysates)) EUB0000639a CLK2; assay type: subcellular; details: lysate
Dual specificity protein kinase CLK2, sequence (P49760 whole entry, looked up): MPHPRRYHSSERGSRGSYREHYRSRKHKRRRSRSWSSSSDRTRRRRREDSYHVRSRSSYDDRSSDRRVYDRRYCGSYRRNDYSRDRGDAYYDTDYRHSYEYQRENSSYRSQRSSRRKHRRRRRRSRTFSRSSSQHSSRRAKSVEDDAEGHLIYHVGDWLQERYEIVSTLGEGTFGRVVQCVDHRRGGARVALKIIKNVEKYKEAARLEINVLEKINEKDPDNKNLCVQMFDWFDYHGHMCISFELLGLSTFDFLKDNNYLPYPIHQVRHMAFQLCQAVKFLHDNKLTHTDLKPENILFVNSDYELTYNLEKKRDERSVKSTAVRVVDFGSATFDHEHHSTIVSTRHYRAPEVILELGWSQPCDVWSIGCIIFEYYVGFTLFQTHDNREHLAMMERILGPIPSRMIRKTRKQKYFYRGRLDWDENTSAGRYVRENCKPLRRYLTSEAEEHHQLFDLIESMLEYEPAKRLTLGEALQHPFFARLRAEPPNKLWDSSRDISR

[13] = molecular target: T2, Serine/threonine-protein kinase ULK1 (Homo sapiens) (UniProt O75385); assay: Selectivity interaction (ActivX KiNativ screen (kinase selectivity in THP-1 cell lysates)) EUB0000639a ULK1; assay type: subcellular; details: lysate
T2 sequence (whole entry): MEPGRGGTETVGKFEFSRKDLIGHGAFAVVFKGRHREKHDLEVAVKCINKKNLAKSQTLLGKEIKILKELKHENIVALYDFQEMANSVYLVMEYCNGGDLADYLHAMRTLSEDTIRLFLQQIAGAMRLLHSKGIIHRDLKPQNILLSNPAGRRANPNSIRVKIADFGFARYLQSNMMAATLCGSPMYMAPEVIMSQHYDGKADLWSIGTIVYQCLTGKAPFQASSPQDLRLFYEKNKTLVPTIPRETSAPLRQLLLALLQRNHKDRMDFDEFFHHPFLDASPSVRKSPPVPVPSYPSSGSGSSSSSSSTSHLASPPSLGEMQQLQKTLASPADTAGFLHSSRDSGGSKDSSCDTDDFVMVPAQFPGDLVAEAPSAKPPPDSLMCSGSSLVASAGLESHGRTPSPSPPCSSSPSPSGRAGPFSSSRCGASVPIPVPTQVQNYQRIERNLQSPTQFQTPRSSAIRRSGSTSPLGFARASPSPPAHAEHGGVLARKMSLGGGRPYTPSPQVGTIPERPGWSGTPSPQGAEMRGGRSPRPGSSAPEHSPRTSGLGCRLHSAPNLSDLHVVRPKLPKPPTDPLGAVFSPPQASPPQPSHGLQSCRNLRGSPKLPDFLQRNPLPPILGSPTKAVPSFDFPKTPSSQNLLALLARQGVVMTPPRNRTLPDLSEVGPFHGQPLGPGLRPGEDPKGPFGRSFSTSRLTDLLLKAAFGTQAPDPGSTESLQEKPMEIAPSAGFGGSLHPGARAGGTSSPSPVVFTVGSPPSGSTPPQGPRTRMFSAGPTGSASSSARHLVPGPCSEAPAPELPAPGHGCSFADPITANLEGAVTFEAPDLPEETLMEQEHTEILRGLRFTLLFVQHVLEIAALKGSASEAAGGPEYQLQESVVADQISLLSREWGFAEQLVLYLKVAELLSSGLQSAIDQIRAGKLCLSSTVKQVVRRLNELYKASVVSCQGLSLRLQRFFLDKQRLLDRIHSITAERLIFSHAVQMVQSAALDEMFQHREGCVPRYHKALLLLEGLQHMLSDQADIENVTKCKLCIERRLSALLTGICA

[14] = molecular target: Cyclin-dependent kinase 13 (Homo sapiens, UniProt Q14004); assay: Selectivity interaction (Ambit KINOMEscan and KiNATiv profiling in Jurkat cells) EUB0000090b CDK13; assay type: cell-based; details: at 1 µM
[15] = molecular target: Vascular endothelial growth factor receptor 2 (Homo sapiens, UniProt P35968); assay: Selectivity interaction (Ambit KINOMEscan and KiNATiv profiling in Jurkat cells) EUB0000090b KDR; assay type: cell-based; details: at 1 µM
Vascular endothelial growth factor receptor 2, sequence (P35968 whole entry): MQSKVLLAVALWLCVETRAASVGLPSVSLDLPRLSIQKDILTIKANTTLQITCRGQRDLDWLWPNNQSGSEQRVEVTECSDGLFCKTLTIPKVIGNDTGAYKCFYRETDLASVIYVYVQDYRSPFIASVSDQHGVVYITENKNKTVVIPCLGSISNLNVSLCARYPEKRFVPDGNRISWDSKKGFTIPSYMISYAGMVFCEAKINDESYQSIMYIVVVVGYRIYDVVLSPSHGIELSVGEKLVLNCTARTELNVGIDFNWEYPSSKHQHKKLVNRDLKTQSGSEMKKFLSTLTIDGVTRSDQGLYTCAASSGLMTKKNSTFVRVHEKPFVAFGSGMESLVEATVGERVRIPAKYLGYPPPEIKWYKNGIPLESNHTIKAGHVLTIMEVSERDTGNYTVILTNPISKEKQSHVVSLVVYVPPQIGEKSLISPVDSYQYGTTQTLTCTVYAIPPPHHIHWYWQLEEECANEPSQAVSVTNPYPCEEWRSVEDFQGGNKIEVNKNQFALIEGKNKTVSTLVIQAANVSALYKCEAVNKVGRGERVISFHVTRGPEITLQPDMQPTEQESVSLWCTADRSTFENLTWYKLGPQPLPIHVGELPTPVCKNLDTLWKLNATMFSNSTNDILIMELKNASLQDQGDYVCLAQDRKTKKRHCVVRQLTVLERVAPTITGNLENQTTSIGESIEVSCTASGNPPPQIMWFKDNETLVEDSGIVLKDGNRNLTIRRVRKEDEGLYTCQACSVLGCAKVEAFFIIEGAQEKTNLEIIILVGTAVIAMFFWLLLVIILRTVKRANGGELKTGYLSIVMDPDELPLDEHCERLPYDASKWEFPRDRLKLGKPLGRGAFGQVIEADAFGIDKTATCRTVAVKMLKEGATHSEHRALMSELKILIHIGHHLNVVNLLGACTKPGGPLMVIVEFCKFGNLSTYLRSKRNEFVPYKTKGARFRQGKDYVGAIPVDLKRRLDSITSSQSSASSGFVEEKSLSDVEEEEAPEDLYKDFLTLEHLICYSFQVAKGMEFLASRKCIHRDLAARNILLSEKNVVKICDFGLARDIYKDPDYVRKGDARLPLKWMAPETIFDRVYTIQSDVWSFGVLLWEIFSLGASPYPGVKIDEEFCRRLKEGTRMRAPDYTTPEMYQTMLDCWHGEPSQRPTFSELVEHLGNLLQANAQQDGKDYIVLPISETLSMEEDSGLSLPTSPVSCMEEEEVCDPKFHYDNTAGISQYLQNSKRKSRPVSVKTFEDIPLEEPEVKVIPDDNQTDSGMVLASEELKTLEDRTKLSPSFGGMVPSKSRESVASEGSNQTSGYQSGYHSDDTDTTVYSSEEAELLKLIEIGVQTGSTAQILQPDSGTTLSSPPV

Serine/threonine-protein kinase PRP4 homolog (Homo sapiens), sequence (Q13523 whole entry): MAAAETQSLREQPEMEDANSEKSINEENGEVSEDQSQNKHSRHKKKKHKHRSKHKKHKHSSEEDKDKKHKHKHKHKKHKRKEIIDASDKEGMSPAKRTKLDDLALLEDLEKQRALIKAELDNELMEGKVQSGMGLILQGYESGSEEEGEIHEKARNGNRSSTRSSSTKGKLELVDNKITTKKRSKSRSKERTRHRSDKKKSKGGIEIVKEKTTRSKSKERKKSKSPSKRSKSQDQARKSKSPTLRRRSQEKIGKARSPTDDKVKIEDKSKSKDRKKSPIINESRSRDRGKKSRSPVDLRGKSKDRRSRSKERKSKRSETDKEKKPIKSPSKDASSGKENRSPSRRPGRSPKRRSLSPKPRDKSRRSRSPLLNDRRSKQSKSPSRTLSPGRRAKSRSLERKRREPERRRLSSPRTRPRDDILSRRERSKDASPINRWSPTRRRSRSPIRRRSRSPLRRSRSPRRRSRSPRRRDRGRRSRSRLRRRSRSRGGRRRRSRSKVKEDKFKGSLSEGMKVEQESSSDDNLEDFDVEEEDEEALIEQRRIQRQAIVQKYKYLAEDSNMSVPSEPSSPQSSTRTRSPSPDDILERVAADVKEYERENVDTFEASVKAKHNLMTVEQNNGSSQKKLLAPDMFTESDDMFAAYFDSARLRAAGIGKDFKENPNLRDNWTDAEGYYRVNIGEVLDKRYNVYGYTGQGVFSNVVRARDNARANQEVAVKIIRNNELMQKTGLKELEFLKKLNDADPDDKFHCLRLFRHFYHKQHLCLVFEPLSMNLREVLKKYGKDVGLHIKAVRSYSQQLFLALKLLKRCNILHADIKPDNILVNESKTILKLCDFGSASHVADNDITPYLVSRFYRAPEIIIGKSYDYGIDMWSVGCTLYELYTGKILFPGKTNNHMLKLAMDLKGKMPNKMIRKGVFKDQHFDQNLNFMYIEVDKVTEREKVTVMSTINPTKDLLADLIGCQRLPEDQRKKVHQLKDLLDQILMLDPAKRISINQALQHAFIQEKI

## COc1cc(N(C)c2ccnc3ccc(C(F)(F)F)cc23)cc(OC)c1OC
[1]
  % binding: 100%

## C=CC(=O)Nc1cc(-n2c(=O)ccc3cnc4ccc(-c5ccc(NS(C)(=O)=O)cc5)cc4c32)ccc1C
[2]; at 1 µM
  % of control: 100%
[2]; at 10 µM
  % of control: 77%

## Nc1cnc(N2CCc3cc(S(=O)(=O)Nc4c(F)cc(Cl)cc4F)cc(N4CCCC4=O)c32)nc1 [TP-020n]
[3]
  % of control: 100%
[4]
  % of control: 100%

## Cc1cc(CN)cc(C)c1-c1ncn(C)c1-c1cncn1C
[5]
  dTM: -1.36 K

## Cc1cc([C@@H](C)Nc2ccccc2C(=O)O)c2nc(N3CCOCC3)cc(=O)n2c1 [AZD-6482]
[6]
  % of control: 94%

## CC(=O)c1cc(-c2ccccc2OCC2CC2)c2ncccn12
[7]
  % of control: 94%

## N#Cc1cccc(-c2c[nH]c3ncnc(N4CCOCC4)c23)c1
[8]
  % of control: 62%
[9]
  % of control: 84%
[10]
  % of control: 93%

## O[C@H]1CC[C@H](Nc2ncc3nc(Nc4c(F)cc(F)cc4F)n([C@H]4CCOC4)c3n2)CC1
[11]
  % of control: 73%

## CC[C@@H]1[C@H](F)C(=O)N[C@@H]1COc1nccc2cc(C(N)=O)c(OC)cc12 [ZIMLOVISERTIB]
[12]; at 0.01 µM
  % of inhibition: 26.8%
[12]; at 0.04 µM
  % of inhibition: 32.4%
[12]; at 0.2 µM
  % of inhibition: 38.8%
[12]; at 1 µM
  % of inhibition: 14.3%
[12]; at 5 µM
  % of inhibition: 19.9%
[13]; at 0.01 µM
  % of inhibition: 4.8%
[13]; at 0.04 µM
  % of inhibition: 4.1%
[13]; at 0.2 µM
  % of inhibition: 6.2%
[13]; at 1 µM
  % of inhibition: -18.5%
[13]; at 5 µM
  % of inhibition: 8%

## CN(C)C/C=C/C(=O)Nc1ccc(C(=O)N2CCCC(Nc3ncc(Cl)c(-c4c[nH]c5ccccc45)n3)C2)cc1 (centres undefined)
[14]
  % of control: 2.8%
[15]
  % of control: 86%
